Assay results reported in patent publication US20250161245A1, “A MIXTURE OF UREA, BIURET AND N-CONTAINING BY-PRODUCTS CREATED DURING BIURET PRODUCTION AS A DIETARY NON-PROTEIN NITROGEN-SOURCE FOR RUMINANTS AND USES THEREOF” (Yara International ASA, priority 2022, published 2025).

Test system: rumen microbiota
Test: Gas Production Test, in vitro rumen fermentation model (Example 1)
Assay type: cell-based
Conditions: for cumulative gas production after 72 hours (comparison): isonitrogenous, 72 hours in vitro incubation, against blank and other NPN sources; for lag period of cumulative gas production: buffered rumen fluid, 39° C.; for part still unused by the rumen microbes after 24 hours: based on the cumulative gas production profiles
Procedure: The in vitro model used to simulate rumen digestion and utilization of the products is the Gas Production Test protocol, adapted for protein digestibility, as described in more detail in the following paragraph.
Approximately 1 liter of rumen fluid was collected from two different rumen-fistulated animals in the morning. Rumen fluid was strained through a cheesecloth, kept at 39° C. under CO2 and then diluted 1:19 with a nitrogen-free buffer and mineral solution containing 10.03 g NaHCO3, 1.43 g Na2HPO4, 1.55 g KH2PO4, 0.15 g MgSO4·7H2O, 0.52 g Na2S, 0.017 g CaCl2·2H2O, 0.015 g MnCl2·4H2O, 0.002 g […], 0.012 g FeCl3·6H2O and 0.125 mg resazurin per liter.
To ensure the rumen fluid was depleted of free nitrogen and to ensure nitrogen would be the limiting factor for the microbial growth at the start of the experiment, the buffered rumen fluid was pre-incubated for 4 hours at 39° C. with a carbohydrate overload of glucose, xylose and soluble starch, each at 3.33 g/l. During this pre-incubation, all nitrogen available in the rumen fluid would be incorporated into bacterial protein and other bacterial nitrogen-containing components.
Each product was weighed into different glass bottles on an isonitrogenous base, providing 15 mg N per flask. Then, 60 ml of the pre-incubated buffered rumen fluid was added, under continuous flushing with CO2. Flasks were closed with rubber stoppers and placed in a shaking water bath with 50 movements per minute at 39° C. to start the incubation period. The gas production of each flask was recorded continuously for 72 hours using a fully automated system. All test products including a blank (i.e. no product added to the flask of rumen fluid) were tested in one run in triplicate.
The cumulative gas production was measured continuously for 72 hours.

[1] = 15 mg N per flask, 72 hours incubation

Structure (SMILES) | cumulative gas production after 72 hours (comparison) | time after which gas production stopped / maximum cumulative gas production (end level) was reached [1] [h] | time of highest (peak) gas production [1] [h] | lag period of cumulative gas production [1] | gas production rate from 20 to 50 hours (20 to 50 hours of incubation) | part still unused by the rumen microbes after 24 hours
O=c1[nH]c(=O)[nH]c(=O)[nH]1 [cyanuric acid, Cyanuric acid] | not significantly different | – | – | – | – | –
NC(=O)NC(=O)NC(N)=O [Triuret] | – | 60 | 20 | 9 h | approximately 4 ml/hour | approximately 60%
Nc1nc(=O)[nH]c(=O)[nH]1 [ammelide, Ammelide] | not significantly different | – | – | – | – | –
NC(=O)NC(N)=O [Biuret] | – | 40 | – | approximately 5 hours | – | approximately 60%
